The subject of this test is rat. Kind of test: Intake of 5% sucrose solution in rat model. The following applies: intake of 5% sucrose solution in animal model (rat). The class given is in vivo. An excerpt:
Compounds of the present invention in the cAMP accumulation model, antagonizes the WIN-55, 212-2 inhibition of forskolin-induced cAMP accumulation in hCB1-CHO cells [J Pharmacol. Exp Ther., 1998, 284, 291-297]. In a mouse vas deferens preparation, representative compounds cause rightward shift of the WIN-55, 212-2 concentration-response curve (Eur. J. Pharm. 1995, 284, 241-247). Representative compounds of the present invention have shown decrease in sucrose solution intake in rat model (Table 1) [Psychopharmacology, 1997, 132, 104-106].
For the compound `O=C(NN1CCC(O)CC1)c1nn(-c2ccc(Cl)cc2Cl)c2c1CCOc1cc(Cl)ccc1-2` [Compound 3], the “Reduction in sucrose solution consumption w.r.t. control animals” value is on record as −18.9 ± 14.0.
The value for `O=C(NN1CC2CCCC2C1)c1nn(-c2ccc(Cl)cc2Cl)c2c1CCOc1cc(Cl)ccc1-2` (centres unmarked) [Compound 5, 8-chloro-1-(2,4-dichloro-phenyl)-4,5-dihydro-1H-6-oxa-1,2-diaza-benzo [e] azulene-3-carboxylic acid (hexahydro-cyclopenta[c]pyrrol-2-yl)-amide] was −23.2 ± 11.4.
The value for `O=C(NN1CCOCC1)c1nn(-c2ccc(Cl)cc2Cl)c2c1CCOc1cc(Cl)ccc1-2` [Compound 6, 8-chloro-1-(2,4-dichloro-phenyl)-4,5-dihydro-1H-6-oxa-1,2-diaza-benzo [e] azulene-3-carboxylic acid morpholine-4-yl-amide] was −24.9 ± 8.9; that for `O=C(NN1CCCCC1)c1nn(-c2ccc(Cl)cc2)c2c1CCOc1cc(Cl)ccc1-2` [Compound 8, 8-chloro-1-(4-chloro-phenyl)-4,5-dihydro-1H-6-oxa-1,2-diaza-benzo [e] azulene-3-carboxylic acid piperidin-1-ylamide] was −30.4 ± 4.3; that for `O=C(NN1CCCCC1)c1nn(-c2ccc(Cl)cc2Cl)c2c1CCCc1sc(Cl)cc1-2` [Compound 16] was −13.2 ± 15.7.
